Test results published in patent publication US20060167098A1, “Method for the treatment of diseases linked to an accumulation of triglycerides and cholesterol” (Institut National De La Sante ET De LA Recherche Medicale …, priority 2003, published 2006).

Legend:
Format in all cases: in vivo
[1] = Gain of body fat mass by DEXA in Swiss mice, standard diet, not fasted; conditions: 100 mg/kg/day; for gain of body fat: standard diet, not fasted
Text: (§1) Six to 8 weeks old male (Crl:CD-1(ICR)BR) Swiss mice, and six to ten weeks old male RjOrl Swiss mice (i.e. lean mice) weighing 28 and 32 grams were purchased from Dépré (Saint Doulchard, France). Ten to 12 weeks old ob/ob male (C57BL/6-ob) mice (i.e. obese mice), weighing 40 to 44 grams were purchased from Janvier (Le-Genest-St-Isle, France). In one experiment, younger ob/ob mice (5-6 weeks old) weighing 25-26 grams were also studied. In genetically obese ob/ob mice, a mutation on the gene of leptin prevents the normal production of this hormone, thus increasing appetite and decreasing energy consumption (Friedman J. M., Halaas J. L., 1998, Nature 395 : 763-770). […] The animals were acclimatized for one to two weeks before the start of experiments.
(§2) D,L-β-Aminoisobutyric acid (BAIBA) was purchased from Sigma-Aldrich. BAIBA has been administered in drinking water at the dose of 100 mg/kg/day or 500 mg/kg/day for 6 weeks, 2 months or 4 months according to the experiments.
(§3) The in vivo determination of body fat mass in anesthetized mice has been performed by “DEXA” (Dual Energy X-ray Absorptiometry) (Pietriobelli A., Formica C., Wang Z., Heymsfield S. B., 1996, Am. J. Physiol. 271 (Endocrinol. Metab. 34): E941-E951)). […] It is noteworthy that DEXA also gives for each investigated animal its lean mass that is the total amount of water and proteins (in grams) in the body (excluding the head). Therefore, for a given animal, DEXA allows the determination of the percentage of body fat which is its body fat mass divided by the sum of its body lean and fat masses (fat mass/(lean mass+fat mass)). The “DEXA” apparatus was a Piximus® from Lunar Corporation (Madison, Wis.). Mice were anesthetized thanks to a mixture of xylazine and ketamine.
Procedure 1: the animals were not fasted before DEXA investigations. The first DEXA measurement was performed one day before the beginning of the investigation (T0). Afterwards, DEXA measurements have been respectively performed two weeks (T2) and six weeks (T6) after the beginning of the treatment. With this procedure, it has been possible to determine in each group of animals the evolution of several parameters (e.g. fat mass, body weight) between respectively T0 and T2, and T2 and T6. Comparisons of these evolutions were thus performed for the T0-T2, T2-T6 and T0-T6 periods.
In a second series of investigations, we sought to determine as to whether of 100 mg/kg/day of β-aminoisobutyric acid (BAIBA) decreases body fat in Swiss mice not submitted to fast before DEXA measurements. Mice were 6 to 8 weeks old at the beginning of the experiment. In this experiment, DEXA was performed one day before the beginning of the treatment (T0) and then two and six weeks after the initiation of the experience (T2 and T6, respectively). This allowed us to determine for each animal the variation of body fat mass for the different periods of the treatment (T0-T2, T2-T6 and T0-T6). […] This effect of BAIBA is submitted in FIG. 2.

[2] = Body fat mass by DEXA in genetically obese ob/ob mice; conditions: 100 mg/kg/day
Text: as §1, §2, §3
Procedure 1: the animals were not fasted before DEXA investigations. The first DEXA measurement was performed one day before the beginning of the investigation (T0). Afterwards, DEXA measurements have been respectively performed two weeks (T2) and six weeks (T6) after the beginning of the treatment. […]

[3] = Plasma lipids in very young ob/ob mice; conditions: very young ob/ob mice (6 weeks at the beginning)
Experimental: Plasma lipids (triglycerides, total cholesterol, phospholipids) were measured on an automatic analyser (Hitachi 717®). The commercial kits used to assess triglycerides, total cholesterol and phospholipids on this analyser were all from bioMérieux (references 61238, 61219 and 61491, respectively). Plasma non esterified fatty acids (NEFA) were assessed by using a commercial kit (Wako, reference 994-75409). Hepatic and plasma lipids were performed at the end of six weeks of treatment in animals that have been fasted for 48 hours. Triglycerides and HDL-cholesterol were also assessed after 2 months (in the fed state) or after 4 months of treatment (after an overnight fast).
Accordingly, plasma triglycerides were 1.35 and 1.39 mmol/L in ob/ob mice in the present study, whereas much higher levels (1.96 mmol/L) were found in Swiss mice fed with the western diet (see above). Thus, it remains possible that the beneficial effects of BAIBA on plasma lipids are more pronounced when lipid levels are above a certain threshold. In keeping with this notion, BAIBA reduced by 22% plasma triglycerides in mice fed with the western diet (FIG. 6).

[4] = Liver histology in ob/ob mice, first series (48-hr fast); conditions: standard diet
Experimental: Plasma HDL-cholesterol and alanine aminotransferase (ALT) were measured on an automatic analyser (Olympus AU400®) with commercial kits (Olympus Diagnostica GmbH, references OSR6187 and OSR6107, respectively).
Finally, liver histology was performed according to regular procedure. Steatosis and fibrosis were assessed thanks to the Oil red O and Masson's trichrome stains, respectively, whereas necrosis and inflammation were determined thanks to the HPS (Hematoxylin-Phloxin-Saffron) stain, or the HE (Hematoxylin-Eosin) stain. In one experiment, perisinusoidal fibrosis was assessed with the Sirius Red stain.
Liver histology was first examined in ob/ob mice fed with standard diet receiving (11 mice) or not (10 mice) β-aminoisobutyric acid in the drinking water. In this experiment, mice were submitted to a 48-hr period of fast before killing and liver examination.

CC(CN)C(=O)O (racemic) [BAIBA, D,L-β-Aminoisobutyric acid]
gain of body fat ([1]; T0-T2 period): 0.56±0.12 grams | gain of body weight ([1]; T0-T6): 9.02±0.42 grams | reduction of the gain of fat mass ([1]; T0-T6, standard diet, vs control): 55% | reduction of the gain of body weight ([1]; T0-T6, vs control, p<0.01): 12% | gain of body fat ([1]; T0-T6 period): 0.84±0.18 grams | gain of body fat ([1]; T2-T6 period): 0.28±0.12 grams | gain of body fat ([2]; 10-12 weeks old ob/ob mice, first two weeks): 4.65±0.35 grams | reduction of body fat ([2]; 10-12 weeks old ob/ob mice, first two weeks, not significant): 11% | gain of body fat ([2]; ob/ob mice, T0-T6): 7.30±0.61 grams | plasma phospholipids [3]: 4.35 ± 0.11 mmol/L | plasma total cholesterol [3]: 4.96 ± 0.15 mmol/L | plasma triglycerides [3]: 1.07 ± 0.03 mmol/L | reduction of plasma phospholipids [3]: 4% | reduction of total cholesterol [3]: 5% | animals with inflammation [4]: 63% | animals with necrosis [4]: 63% | animals with perisinusoidal fibrosis [4]: 45% | plasma alanine aminotransferase [4]: not decreased | mice with between 90 and 100% of fat-laden hepatocytes ([4]; 11 treated mice): 27%
